One data set deals with NIH3T3. Put plainly: Antiproliferative activity against […] NIH3T3 cells expressing MPRIP-NTRK1 assessed as cell growth inhibition incubated for 4 to 7 days by CellTiter-Glo Luminescent Cell Viability Assay. The conditions noted are these: Mus musculus. It counts as functional, cell-based. On the technique in general: ATP-based viability assays read luminescence as a measure of living cells.

Data set [1] deals with Vascular endothelial growth factor receptor 2 (Homo sapiens, UniProt P35968). Put plainly: Inhibition of KDR (unknown origin).
Data set [2] addresses High affinity nerve growth factor receptor (Homo sapiens, UniProt P04629). Put plainly: Inhibition of TRKA (unknown origin).
The target in data set [3] is Tyrosine-protein kinase Lck (Homo sapiens, UniProt P06239). Put plainly: Inhibition of LCK (unknown origin).
In the next data set the target is CYP3A4 (Homo sapiens, UniProt P08684). Put plainly: Induction of CYP3A4 in human hepatocytes assessed as fold induction at 1 uM using testosterone as substrate preincubated with replacement of fresh medium containing compound every 24 hrs for 72 hrs followed by substrate addition and measured after 1 hr by LC-MS/MS analysis relative to control. It counts as ADME, cell-based, Hepatocyte. The conditions noted are these: probe testosterone, time 73 hrs, read-out: FC.

SMILES strings stand for the structures. Some results are limits rather than exact numbers.

Sequence of Vascular endothelial growth factor receptor 2 (P35968 whole entry): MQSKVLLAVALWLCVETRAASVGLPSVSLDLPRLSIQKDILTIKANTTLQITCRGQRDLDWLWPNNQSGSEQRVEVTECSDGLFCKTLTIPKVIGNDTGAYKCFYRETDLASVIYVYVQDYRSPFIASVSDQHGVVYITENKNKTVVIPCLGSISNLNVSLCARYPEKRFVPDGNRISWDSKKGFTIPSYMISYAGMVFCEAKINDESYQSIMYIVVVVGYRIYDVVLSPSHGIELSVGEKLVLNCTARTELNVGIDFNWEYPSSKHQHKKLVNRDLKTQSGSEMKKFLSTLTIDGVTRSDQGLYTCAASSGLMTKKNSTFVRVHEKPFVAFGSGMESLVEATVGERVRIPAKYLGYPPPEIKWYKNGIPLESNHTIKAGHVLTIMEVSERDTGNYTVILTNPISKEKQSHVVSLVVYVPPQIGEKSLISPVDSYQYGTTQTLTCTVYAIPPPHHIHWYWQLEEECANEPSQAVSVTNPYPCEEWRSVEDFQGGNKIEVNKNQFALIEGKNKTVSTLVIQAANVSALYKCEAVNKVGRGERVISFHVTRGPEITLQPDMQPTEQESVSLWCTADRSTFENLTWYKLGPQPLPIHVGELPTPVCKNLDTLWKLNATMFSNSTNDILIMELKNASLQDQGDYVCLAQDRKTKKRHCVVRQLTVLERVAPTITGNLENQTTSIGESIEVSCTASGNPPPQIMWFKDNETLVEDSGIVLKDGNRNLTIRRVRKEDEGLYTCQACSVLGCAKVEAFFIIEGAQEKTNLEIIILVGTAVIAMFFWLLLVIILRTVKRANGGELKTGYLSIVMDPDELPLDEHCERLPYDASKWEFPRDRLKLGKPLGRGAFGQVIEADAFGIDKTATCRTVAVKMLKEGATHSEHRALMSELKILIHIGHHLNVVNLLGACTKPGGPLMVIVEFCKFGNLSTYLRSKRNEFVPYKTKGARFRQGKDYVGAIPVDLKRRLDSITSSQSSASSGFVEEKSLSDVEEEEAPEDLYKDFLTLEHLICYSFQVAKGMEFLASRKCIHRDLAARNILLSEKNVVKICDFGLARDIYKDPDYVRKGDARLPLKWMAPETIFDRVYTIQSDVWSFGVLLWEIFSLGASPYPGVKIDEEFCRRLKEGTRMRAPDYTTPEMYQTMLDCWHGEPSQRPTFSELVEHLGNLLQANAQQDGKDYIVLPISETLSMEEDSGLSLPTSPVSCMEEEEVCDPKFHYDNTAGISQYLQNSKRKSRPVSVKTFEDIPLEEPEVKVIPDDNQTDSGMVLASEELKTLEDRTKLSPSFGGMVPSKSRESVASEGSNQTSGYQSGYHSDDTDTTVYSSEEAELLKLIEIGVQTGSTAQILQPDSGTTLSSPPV
Sequence of CYP3A4 (P08684 whole entry): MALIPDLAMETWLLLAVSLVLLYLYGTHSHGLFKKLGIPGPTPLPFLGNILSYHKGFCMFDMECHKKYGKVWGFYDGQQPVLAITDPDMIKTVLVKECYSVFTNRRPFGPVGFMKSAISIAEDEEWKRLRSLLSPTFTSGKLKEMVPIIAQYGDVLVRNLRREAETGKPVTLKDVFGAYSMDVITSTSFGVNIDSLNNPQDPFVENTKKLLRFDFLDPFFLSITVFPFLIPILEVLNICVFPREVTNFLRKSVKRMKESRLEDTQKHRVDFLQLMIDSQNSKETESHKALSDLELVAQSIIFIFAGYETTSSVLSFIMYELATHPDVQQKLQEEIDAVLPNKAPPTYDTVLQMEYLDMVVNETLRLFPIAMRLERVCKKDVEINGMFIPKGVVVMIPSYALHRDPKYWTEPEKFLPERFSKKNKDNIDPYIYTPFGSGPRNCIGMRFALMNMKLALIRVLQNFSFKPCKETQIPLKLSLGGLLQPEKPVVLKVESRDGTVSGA
Sequence of High affinity nerve growth factor receptor (P04629 whole entry): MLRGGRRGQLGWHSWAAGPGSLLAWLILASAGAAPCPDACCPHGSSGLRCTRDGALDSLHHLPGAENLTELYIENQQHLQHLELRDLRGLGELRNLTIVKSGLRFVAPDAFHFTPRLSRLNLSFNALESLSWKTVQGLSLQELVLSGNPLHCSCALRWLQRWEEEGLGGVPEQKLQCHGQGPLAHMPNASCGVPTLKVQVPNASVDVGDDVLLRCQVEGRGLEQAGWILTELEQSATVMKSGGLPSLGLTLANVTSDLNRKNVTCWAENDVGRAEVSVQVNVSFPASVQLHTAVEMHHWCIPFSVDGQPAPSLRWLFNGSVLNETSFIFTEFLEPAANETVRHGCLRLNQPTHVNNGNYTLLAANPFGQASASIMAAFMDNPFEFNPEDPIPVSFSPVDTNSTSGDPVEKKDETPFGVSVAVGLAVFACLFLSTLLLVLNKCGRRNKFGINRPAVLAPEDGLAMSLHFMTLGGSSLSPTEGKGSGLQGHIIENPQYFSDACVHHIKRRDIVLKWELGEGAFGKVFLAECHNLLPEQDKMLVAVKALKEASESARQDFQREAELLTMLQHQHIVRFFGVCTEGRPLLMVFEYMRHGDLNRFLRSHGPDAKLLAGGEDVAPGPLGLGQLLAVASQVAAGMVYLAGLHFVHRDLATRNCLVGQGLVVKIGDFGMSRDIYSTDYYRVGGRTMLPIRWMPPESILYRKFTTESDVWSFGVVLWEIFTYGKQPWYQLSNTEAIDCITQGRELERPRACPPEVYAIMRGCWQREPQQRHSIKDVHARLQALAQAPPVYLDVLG
Sequence of Tyrosine-protein kinase Lck (P06239 whole entry): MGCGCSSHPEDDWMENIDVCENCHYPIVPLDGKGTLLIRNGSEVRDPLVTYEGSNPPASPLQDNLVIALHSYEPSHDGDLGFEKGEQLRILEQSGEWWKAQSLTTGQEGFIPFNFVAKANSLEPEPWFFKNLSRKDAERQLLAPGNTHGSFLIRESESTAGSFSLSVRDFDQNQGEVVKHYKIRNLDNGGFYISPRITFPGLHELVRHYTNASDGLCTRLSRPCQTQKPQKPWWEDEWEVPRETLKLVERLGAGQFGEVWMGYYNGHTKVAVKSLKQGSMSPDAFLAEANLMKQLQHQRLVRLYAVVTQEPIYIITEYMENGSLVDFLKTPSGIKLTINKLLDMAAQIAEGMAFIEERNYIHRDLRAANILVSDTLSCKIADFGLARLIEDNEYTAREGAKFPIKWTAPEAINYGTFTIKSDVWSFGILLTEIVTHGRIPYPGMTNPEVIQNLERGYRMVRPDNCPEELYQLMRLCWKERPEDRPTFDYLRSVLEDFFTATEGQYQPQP

The term IC50 denotes the midpoint of a concentration-inhibition curve. As to `CC1(C)c2cc(N3CC4(COC4)C3)ccc2C(=O)c2c1oc1cc(C#Cc3cc(OCC4CC4)ccn3)ccc21`, the IC50 in the data set with NIH3T3 is 69 nM; in data set [1] it was 430 nM; in data set [2] it was 3 nM; in data set [3], 86 nM. In addition, the fold induction at 1 h, 1 µM on CYP3A4 was determined as 2.6.
Consider `CC1(C)c2cc(OCCN3CCCOCC3)ccc2C(=O)c2c1oc1cc(C#Cc3cc(OCC4CC4)ccn3)ccc21`, for which the half-maximal inhibitory concentration (IC50) in the data set with NIH3T3 came out at 80 nM; in data set [1], 960 nM; in data set [2], 2.8 nM; in data set [3], 96 nM. On CYP3A4, the fold induction at 1 h, 1 µM turned out to be 6.1.
Taken in the same sequence, the figures for `CCCc1cc(C(=O)NC(C)(C)C)cc(C#Cc2ccc3c4c(oc3c2)C(C)(C)c2cc(NS(C)(=O)=O)ccc2C4=O)n1` were 12 nM, above 1000 nM, 1.2 nM, 96 nM and 0.9.
In the same order, the values of `CC1(C)c2cc(OCCN3CCOCC3)ccc2C(=O)c2c1oc1cc(C#Cc3cc(OCC(F)(F)F)ccn3)ccc21` are 21 nM, above 1000 nM, 3.3 nM, 330 nM and 6.3.
Taken in the same sequence, the figures for `CC(C)(C)NC(=O)c1ccnc(C#Cc2ccc3c4c(oc3c2)C(C)(C)c2cc(NS(C)(=O)=O)ccc2C4=O)c1` were 14 nM, 600 nM, 0.7 nM, 130 nM and 4.7.
As to `CC1(C)c2cc(OCCN3CCOCC3)ccc2C(=O)c2c1oc1cc(C#Cc3cc(OCC4(CO)CC4)ccn3)ccc21`, the IC50 was found to be 184 nM with NIH3T3, 960 nM in data set [1], 3.3 nM in data set [2] and 370 nM in data set [3]. Also, at CYP3A4, the fold induction at 1 h, 1 µM was 7.9.
Taken in the same sequence, the figures for `CC(C)(C)NC(=O)c1cc(C#N)nc(C#Cc2ccc3c4c(oc3c2)C(C)(C)c2cc(NS(C)(=O)=O)ccc2C4=O)c1` were 67 nM, above 1000 nM, 2.8 nM, 58 nM and 11.
In the same order, the values of `Cc1cnc(C#Cc2ccc3c4c(oc3c2)C(C)(C)c2cc(NS(C)(=O)=O)ccc2C4=O)cc1C(=O)NC(C)(C)C` are 65 nM, above 1000 nM, 3.8 nM, 760 nM and 2.6.
Taken in the same sequence, the figures for `CCc1cc(C(=O)NC(C)(C)C)cc(C#Cc2ccc3c4c(oc3c2)C(C)(C)c2cc(NS(C)(=O)=O)ccc2C4=O)n1` were 12 nM, above 1000 nM, 0.7 nM, 320 nM and 2.8.
Take `CC(C)(C)NC(=O)c1cc(C#Cc2ccc3c4c(oc3c2)C(C)(C)c2cc(NS(C)(=O)=O)ccc2C4=O)nc(C(F)(F)F)c1`: the IC50 in the data set on NIH3T3 was 55 nM; in data set [1], above 1000 nM; in data set [2], 2.6 nM; in data set [3], 130 nM. In addition, on CYP3A4, the fold induction at 1 h, 1 µM is 2.5.
In the same order, the values of `CC1(C)c2cc(OCCN3C4CCC3COC4)ccc2C(=O)c2c1oc1cc(C#Cc3cc(OCC4CC4)ccn3)ccc21` are 180 nM, above 1000 nM, 18 nM, 170 nM and 6.7.
Taken in the same sequence, the figures for `CC1(C)c2cc(OCCN3CCOCC3)ccc2C(=O)c2c1oc1cc(C#Cc3cc(C(=O)NC4CC4)ccn3)ccc21` were 30 nM, above 1000 nM, 1.3 nM, 180 nM and 12.
Turning to `CC1(C)NC(=O)N(CCOc2ccc3c(c2)C(C)(C)c2oc4cc(C#Cc5cc(OCC6CC6)ccn5)ccc4c2C3=O)C1=O`, the IC50 was 150 nM with NIH3T3, above 1000 nM in data set [1], 13 nM in data set [2] and 140 nM in data set [3]. The fold induction at 1 h, 1 µM on CYP3A4 stood at 1.9.
Consider `CC1(C)c2cc(N3CCNC(=O)C3)ccc2C(=O)c2c1oc1cc(C#Cc3cc(OCC4CC4)ccn3)ccc21`, for which the IC50 in the data set with NIH3T3 is 16 nM; in data set [1], 290 nM; in data set [2], 1.4 nM; in data set [3], 50 nM. Further, at CYP3A4, the fold induction at 1 h, 1 µM came to 4.2.
Taken in the same sequence, the figures for `CC1(C)c2cc(OCCN3CCOCC3)ccc2C(=O)c2c1oc1cc(C#Cc3cc(OCCC4CC4)ccn3)ccc21` were 530 nM, 490 nM, 2 nM, 220 nM and 6.4.
Taken in the same sequence, the figures for `CC1(C)c2cc(OCCN3CCOCC3)ccc2C(=O)c2c1oc1cc(C#Cc3cc(OCC4CCC4)ccn3)ccc21` were 210 nM, 171 nM, 2.7 nM, 53 nM and 3.1.
Taken in the same sequence, the figures for `CC1(COc2ccnc(C#Cc3ccc4c5c(oc4c3)C(C)(C)c3cc(OCCN4CCOCC4)ccc3C5=O)c2)CC1` were 73 nM, 420 nM, 2 nM, 160 nM and 6.1.
For `CC1(C)c2cc(OCCN3CC4(COC4)C3)ccc2C(=O)c2c1oc1cc(C#Cc3cc(OCC4CC4)ccn3)ccc21`, the IC50 came out at 46 nM in the data set on NIH3T3, 500 nM in data set [1], 4 nM in data set [2] and 22 nM in data set [3]. Moreover, at CYP3A4, the fold induction at 1 h, 1 µM was determined as 1.4.
In the same order, the values of `CC(C)(C)NC(=O)c1cc(Cl)nc(C#Cc2ccc3c4c(oc3c2)C(C)(C)c2cc(NS(C)(=O)=O)ccc2C4=O)c1` are 48 nM, above 1000 nM, 2.2 nM, 180 nM and 3.
In the same order, the values of `CC1(C)c2cc(N3CCOCC3)ccc2C(=O)c2c1oc1cc(C#Cc3cc(OCC4CC4)ccn3)ccc21` are 53 nM, 690 nM, 3.4 nM, 190 nM and 5.4.
In the same order, the values of `CC1(C)c2cc(NS(C)(=O)=O)ccc2C(=O)c2c1oc1cc(C#Cc3cc(OCC4CC4)ccn3)ccc21` are 75 nM, above 1000 nM, 3.9 nM, 223 nM and 1.2.
For `CC1(C)c2cc(OCCN3CCNC(=O)C3)ccc2C(=O)c2c1oc1cc(C#Cc3cc(OCC4CC4)ccn3)ccc21`, the IC50 in the data set with NIH3T3 stood at 19 nM; in data set [1], 413 nM; in data set [2] it was 2.1 nM; in data set [3] it was 68 nM. The fold induction at 1 h, 1 µM at CYP3A4 worked out at 5.2.
Taken in the same sequence, the figures for `CC1(C)c2cc(NS(C)(=O)=O)ccc2C(=O)c2c1oc1cc(C#Cc3cc(C(=O)NC4CC4)ccn3)ccc21` were 83 nM, above 1000 nM, 2.4 nM, 145 nM and 2.8.
Taken in the same sequence, the figures for `COCCOc1ccnc(C#Cc2ccc3c4c(oc3c2)C(C)(C)c2cc(OCCN3CCOCC3)ccc2C4=O)c1` were 130 nM, above 1000 nM, 15 nM, 820 nM and 6.3.
With `Cc1c(C(=O)NC(C)(C)C)ccnc1C#Cc1ccc2c3c(oc2c1)C(C)(C)c1cc(NS(C)(=O)=O)ccc1C3=O`, the IC50 in the data set on NIH3T3 was 45 nM; in data set [1], above 1000 nM; in data set [2], 3.8 nM; in data set [3], 300 nM. Further, the fold induction at 1 h, 1 µM at CYP3A4 was 4.1.
On to `CC1(C)c2cc(OCCN3CCOCC3)ccc2C(=O)c2c1oc1cc(C#Cc3cncc(OCC4CC4)c3)ccc21`, for which, in data set [2], 160 nM corresponded to half-maximal inhibition (IC50).
`CC1(C)c2cc(NS(C)(=O)=O)ccc2C(=O)c2c1oc1cc(C#Cc3cc(OCC(F)(F)F)ccn3)ccc21`: the IC50 in the data set with NIH3T3 was 67 nM; in data set [1], 997 nM; in data set [2], 2.2 nM; in data set [3], 159 nM. For the same compound, the fold induction at 1 h, 1 µM on CYP3A4 stood at 3.4.
